The subject of series [1] is electroshock-induced seizures (tonic extensor seizures). The series can be described thus: Protection against electroshock-induced seizures in mice. Type of series: in vivo, mice (Cartworth farms, male albino). As to conditions: for ED50: 25 milliamps. An excerpt: Med. Chem. 8, 5-8, (1965). […] […] The number of mice protected against tonic extensor seizures is used as a quantal response to calculate the Ed50, by the method of Spearman and […] (see D. J. Finney, "Statistical Methodology in Biological Assay", Hofner Publishing Co., New York, N.Y. 1952, page 524). For control purposes, a group of six mice is similarly treated with diphenylhydantoin and shocked.

Series [2] deals with seizures induced by electroshock. The series can be described thus: Protection against seizures induced by electroshock in rats. Type of series: in vivo, rats (Sprague Dawley male albino). The note with it: for ED50: Rattus norvegicus, ip, 150 milliamps. An excerpt:
After about thirty minutes, the mice are shocked via ear clip electrodes, with a 60-cycle electrical current for 0.2 second, using a current intensity of 25 milliamps. The number of mice protected against tonic extensor seizures is used as a quantal response to calculate the Ed50, by the method of Spearman and […] (see D. J. Finney, "Statistical Methodology in Biological Assay", Hofner Publishing Co., New York, N.Y. 1952, page 524). For control purposes, a group of six mice is similarly treated with diphenylhydantoin and shocked. […] Protection against seizures induced by electroshock is also shown in rats (Sprague Dawley male albino rats weighting 150 to 300 grams each). The testing procedure is identical to that used in Example 9 supra. except that the electroshock current intensity is increased from 25 to 150 milliamps to accommodate this larger species.

Series [3] relates to electrically induced afterdischarge. The series can be described thus: Depression of electrically induced afterdischarges in the cat. Type of series: in vivo, cat (mongrel cats of either sex). As to conditions: for duration of afterdischarge: intravenous. On the set-up: duration of afterdischarge: unit not given here. An excerpt: N. Strow and C. L. Mitchell, Electroenceph. […] Mongrel cats of either sex weighing 1.5-3.0 kg. are anesthetized with halothane. Two pair of stainless steel screw electrodes are placed bilaterally in the skull for stimulation and recording. The cats are paralyzed with decamethonium, artifically respired and after ninety minutes allowed to blow off the halothane. […] is elicited by electrical stimulation across one pair of electrodes (5 second train of 1 millisecond pulses at 50 pulses per second at 5.0-10 milliamps). Duration of discharge is recorded from the second electrode pair. Two groups of controls are taken before test drug administration and duration of […] measured after each dose of test drug.

The nature of the next series: in vivo. The note with it: mouse, ip.
Setting [4] is: Mus musculus, ip, 0.5 h, absorption time 0.5 (Minutes).

Structures are written as SMILES.

As to `Cc1cccc(C(=O)Nc2c(C)cccc2C)c1N` [N'-(2,6-dimethylphenyl)-2-amino-3-methylbenzamide], the ED50 was 5.6 mg/kg in series [1] (IP, absorption time 0.5 (Minutes), 0.5 min); 7 mg/kg in series [1] (setting [4]); 10 mg/kg in series [1] (Mus musculus, po, 1 min, absorption time 1 (Minutes)); 10 mg/kg in series [1] (Mus musculus, po, 2 min, absorption time 2 (Minutes)); 11 mg/kg in series [1] (Mus musculus, po, 4 min, absorption time 4 (Minutes)); 32 mg/kg in series [1] (Mus musculus, po, 8 min, absorption time 8 (Minutes)). Moreover, the ED50 turned out to be 112 mg/kg in series [1] (Mus musculus, po, 16 min, absorption time 16 (Minutes)); 178 mg/kg in series [1] (Mus musculus, po, 0.4 h, absorption time 24 (Minutes)); 10 mg/kg in series [1] (Mus musculus, po, 0.5 h, absorption time 0.5 (Minutes)); 4.5 mg/kg in series [2] (0.5 h, absorption time 30 min); 2.5 mg/kg in series [2] (1 h, absorption time 60 min); 4.5 mg/kg in series [2] (4 h, absorption time 240 min). The ED50 in series [2] (8 h, absorption time 480 min) turned out to be 7.1 mg/kg. Also, the duration of action entry in series [1] (electroshock, Table I) was “long acting”. In series [2] (electroshock, milligram basis), the “anticonvulsive potency compared with diphenylhydantoin” value is given as “more potent on a milligram basis than diphenylhydantoin”. Also, the duration of afterdischarge is given as 31 in series [3] (2.5 mg./kg. total dose), 27 in series [3] (5.0 mg./kg. total dose), 4 in series [3] (10.0 mg./kg. total dose) and 2 in series [3] (20.0 mg./kg. total dose). For the same compound, in series [3] (relative to diphenylhydantoin on a milligram basis), the “Relative Potency (shortening of afterdischarge)” value was 1.42. This compound displayed an LD50 in “in vivo” of 297 mg/kg.
Take `O=C1NC(=O)C(c2ccccc2)(c2ccccc2)N1` [diphenylhydantoin, reference compound]: the ED50 in series [1] (setting [4]) amounted to 14 mg/kg; in series [2] (0.5 h, absorption time 30 min), 8 mg/kg. Also, the duration of afterdischarge in series [3] (2.5 mg./kg. total dose) is 30; in series [3] (5.0 mg./kg. total dose), 32; in series [3] (10.0 mg./kg. total dose), 9; in series [3] (20.0 mg./kg. total dose), 4.
